What all share (assay type): cell-based
The subject of one experiment is spores of B subtilis. As to the kind of experiment: Sporicidal effect on commercial cellulose germ holder. The conditions noted are these: reference disinfectant as such; 10 minutes. On the procedure: In this case, another more demanding test was used, since the sporicidal effect was assessed. It is similar to the bactericidal effect, but instead of contaminated instruments, a commercial, cellulose germ holder was used, impregnated in spores. In fact, this is the biological control used in sterilisation by ethylene oxide: spores of B subtilis, at a concentration guaranteed by the manufacturer (3M) and which exceed a million spores per germ holder. The rest was similar to that described in the endodontic file method.

Experiment [1] relates to S. aureus, S. epidermidis, E. faecalis, E. coli, K. pneumoniae, E. cloacae, P. mirabilis, Acinetobacter baumanii, P. aeruginosa, C. albicans, Mycobacterium …. As to the kind of experiment: Bactericidal effect on endodontic files, whole panel of Example 1. The following applies: 20 minutes. On the procedure: For the determination of these three effects, the methods described by Herruzo et al in 1999 were used (Rev Stomatol Chir maxillofac 1999; 100: 299-305), which may be resumed as follows: • a) Bactericidal effect on instruments difficult to disinfect: No. 25 endodontic files.
These files are contaminated in a micro-organism for 30 minutes and after drying for 15 minutes in an oblique position, they are introduced in the disinfectant for 5, 10, 15, 20, etc. minutes. Afterwards, they are removed and submerged in a tube with glass beads and a disinfectant inhibitor (broth plus 6% Tween 80, plus 0.5% sodium bisulphite and 0.5% sodium thiosulphate). The tubes are then stirred for 1 minute to detach the surviving micro-organisms, and samples are cultured over the entire surface of agar plates with the culture medium suitable for the tested micro-organism (Müeller-Hinton or Saboureaud-dextrose for yeasts or HIB for mycobacteria, etc.). […] It is recorded if there was any deterioration or not and the time at which it occurred. […]

The next experiment relates to S. aureus. As to the kind of experiment: MIC in a solid medium. The conditions noted are these: expressed as dilution of the product. An excerpt:
(§1) This is shown by means of its MIC (minimum inhibiting concentration).
(§2) A MIC is obtained in a solid medium against S. aureus and P. aeruginosa.

The test system of another experiment is P. aeruginosa. Kind of experiment: MIC in a solid medium. The following applies: expressed as dilution of the product.
Text: as §1, §2

For `O=CCCCC=O` [2% glutaraldehyde, glutaraldehyde], the “reduction of the spore inoculum” value in the experiment on spores of B subtilis worked out at 1.5 log 10. Further, the “bactericidal effect against Mycobacterium” value in experiment [1] is “did not completely destroyed the inoculum”.

On to `[H]/N=C(\N/C(=N/[H])NCCCCCCNC(=N)NC(=N)Nc1ccc(Cl)cc1)Nc1ccc(Cl)cc1` [Clo, Chlorhexidine], for which the “MIC (minimum inhibiting concentration)” value with S. aureus is recorded as 1/20480; with P. aeruginosa, 1/2560.

Take “Didecyl-metyl-polyoxy-ethyl-ammonium propionate”: the “MIC (minimum inhibiting concentration)” value against S. aureus is listed as 1/20480; against P. aeruginosa, 1/160.
